In US7307063B2, “Melanocortin metallopeptides for treatment of sexual dysfunction” (Palatin Technologies, Inc., priority 2001, dated 2007):
Non-standard residues stand in square brackets, D forms with d. Nle = CCCC[C@H](N)C(=O)O

Key:
[1] = biological target: T1, hMC3-R (Homo sapiens, UniProt P41968); test: Competitive binding assay: inhibition of 125I-NDP-α-MSH binding to HEK-293 membranes with cloned human receptor subtype 3; settings: Table 1
T1 construct: expressed in transfected cells; host or cells: HEK-293
T1 sequence (P41968 whole entry): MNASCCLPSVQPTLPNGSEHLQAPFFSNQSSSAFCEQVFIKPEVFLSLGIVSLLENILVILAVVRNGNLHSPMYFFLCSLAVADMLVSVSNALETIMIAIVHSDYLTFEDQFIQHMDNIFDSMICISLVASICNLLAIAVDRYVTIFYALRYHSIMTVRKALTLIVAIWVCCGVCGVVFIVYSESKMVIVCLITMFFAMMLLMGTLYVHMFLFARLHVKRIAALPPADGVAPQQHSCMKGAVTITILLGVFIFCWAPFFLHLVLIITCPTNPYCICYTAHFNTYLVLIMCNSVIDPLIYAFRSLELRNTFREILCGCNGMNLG
Experimental: Rhenium-complexed metallopeptides of the formulas given in Table 1 were prepared, with the metallopeptides complexed with rhenium using the rhenium transfer agent ReOCl3(PPh3)2 in the presence of 1,8-Diazabicyclo[5,4,0] undec-7-ene as a base, as disclosed in International Application PCT/US00/16396, filed Jun. 14, 2000, Melanocortin Metallopeptide Constructs, Combinatorial Libraries and Applications, incorporated by reference herein. Affinities of compounds were measured using membranes from HEK-293 cells containing cloned human melanocortin receptor subtypes 3, 4 and 5. MC1-R membranes were isolated from B16—F10 mouse melanoma cells. The assay tube also contained a chosen concentration of the test peptide of this invention, complexed to a rhenium metal ion as indicated, for determining its efficacy in inhibiting the binding of ^125I-NDP-α-MSH to its receptor. Non-specific binding was measured by complete inhibition of binding of ^125I-NDP-α-MSH in the assay with the presence of 1 μM α-MSH. 100% specific binding was defined as the difference in radioactivity (cpm) bound to cell membranes in the absence and presence of 1 μM α-MSH. The cpm obtained in presence of test compounds were normalized with respect to 100% specific binding to determine the percent inhibition of ^125I-NDP-α-MSH binding.

[2] = biological target: T2, hMC5-R (Homo sapiens, UniProt P33032); test: Competitive binding assay: inhibition of 125I-NDP-α-MSH binding to HEK-293 membranes with cloned human receptor subtype 5
T2 construct: expressed in transfected cells; host or cells: HEK-293
T2 sequence (P33032 whole entry): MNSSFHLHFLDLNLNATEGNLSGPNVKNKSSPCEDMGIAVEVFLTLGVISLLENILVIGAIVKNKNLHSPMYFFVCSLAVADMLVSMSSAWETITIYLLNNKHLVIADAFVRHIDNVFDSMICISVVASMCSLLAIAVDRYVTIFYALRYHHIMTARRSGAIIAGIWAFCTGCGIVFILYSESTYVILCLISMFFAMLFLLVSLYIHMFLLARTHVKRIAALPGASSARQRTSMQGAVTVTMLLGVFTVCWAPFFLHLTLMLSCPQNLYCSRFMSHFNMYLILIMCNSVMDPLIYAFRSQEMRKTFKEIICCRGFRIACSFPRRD
Procedure, shortened: (§1)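 Membranes: B16-F10 mouse melanoma (MC1-R) or HEK-293 expressing cloned human subtypes. Radioligand 125I-NDP-α-MSH; NSB with 1 μM α-MSH; metallopeptide at chosen concentration; readout % inhibition of specific binding.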

[3] = biological target: T3, MC4-R (Homo sapiens, UniProt P32245); test: Competitive binding assay: inhibition of 125I-NDP-α-MSH binding to HEK-293 membranes with cloned human receptor subtype 4
T3 construct: expressed in transfected cells; host or cells: HEK-293
T3 sequence (P32245 whole entry): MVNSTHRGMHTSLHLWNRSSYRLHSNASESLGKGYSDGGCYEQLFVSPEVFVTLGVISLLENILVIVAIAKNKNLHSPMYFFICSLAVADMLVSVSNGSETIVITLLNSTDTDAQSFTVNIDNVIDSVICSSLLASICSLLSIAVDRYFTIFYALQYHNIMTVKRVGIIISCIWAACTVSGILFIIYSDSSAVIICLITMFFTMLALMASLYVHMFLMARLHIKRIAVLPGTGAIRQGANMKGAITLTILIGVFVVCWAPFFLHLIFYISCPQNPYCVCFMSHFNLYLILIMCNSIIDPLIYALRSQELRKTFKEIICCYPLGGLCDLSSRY
Procedure, shortened: as §1

[4] = biological target: T3, MC4-R; test: Functional activity assay: intracellular cAMP in HEK-293 cells expressing MC4-R; type: cell-based; settings: Re-complexed peptide
Experimental: (§2) Rhenium-complexed metallopeptides were prepared, with functional evaluation of peptides at MC1-R and MC4-R performed by measuring the accumulation of intracellular cAMP in HEK-293 cells expressing MC4-R or B16-F10 mouse melanoma cells expressing MC1-R. Antagonistic activity was determined by measuring the inhibition of α-MSH-induced cAMP levels following exposure to peptide. Cells, suspended in Earle's Balanced Salt Solution containing 10 mM HEPES, pH 7.5, 5 mM MgCl2, 1 mM glutamine, 0.1% albumin and 0.6 mM 3-isobutyl-1-methyl-xanthine, a phosphodiesterase inhibitor, were plated in 96 well plates at a density of 0.5×10^5 cells per well. Cells were incubated with the test peptides in the presence or absence of α-MSH for 1 hour at 37° C. cAMP levels were measured by EIA (Amersham) in the cell lysates. Data analysis and EC50 values were determined using nonlinear regression analysis with Prism Graph-Pad software.

[5] = biological target: T4, MC1-R (Mus musculus, UniProt Q01727); test: Competitive binding assay: inhibition of 125I-NDP-α-MSH binding to membranes from B16-F10 mouse melanoma cells
T4 construct: MC1-R membranes were isolated from B16—F10 mouse melanoma cells; endogenous in cells; host or cells: B16-F10 mouse melanoma cells
T4 sequence (Q01727 whole entry): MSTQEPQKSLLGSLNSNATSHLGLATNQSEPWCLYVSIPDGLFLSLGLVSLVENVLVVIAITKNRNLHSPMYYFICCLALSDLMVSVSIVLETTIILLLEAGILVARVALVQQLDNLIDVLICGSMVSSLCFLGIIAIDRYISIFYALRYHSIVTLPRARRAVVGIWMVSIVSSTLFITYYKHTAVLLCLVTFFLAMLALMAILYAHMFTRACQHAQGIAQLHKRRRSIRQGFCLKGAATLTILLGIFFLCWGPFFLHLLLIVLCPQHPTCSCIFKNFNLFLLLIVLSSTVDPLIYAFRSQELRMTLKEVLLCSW
Procedure, shortened: as §1

[6] = test system: Male Sprague-Dawley rats; test: Penile erection behavior dose response animal studies; type: in vivo, rat; settings: for Induction of penile erections (PEs) in rat model, in words: rats, IV
Experimental: For behavioral experiments test solutions of rhenium-complexed metallopeptides were freshly prepared in DMSO and diluted in saline. Male Sprague-Dawley rats (Taconic) weighing 200-250 g were kept on a 12 hour on/off light cycle with food and water ad libitum. All behavioral studies were performed between 10 a.m. and 5 p.m. Groups of 3-10 rats were treated with the rhenium-complexed metallopeptides at a variety of doses via intravenous (IV) injection. In a second experimental paradigm, rats were treated a selected compound intranasally (IN) using a micropipet to deliver 25 μl of solution into one nostril. Immediately after treatment, rats were placed into individual Lucite cages (27 cm long, 16 cm wide and 25 cm high) for behavioral observation.

[7] = biological target: T4, MC1-R; test: Functional activity assay: intracellular cAMP in B16-F10 mouse melanoma cells expressing MC1-R; type: cell-based; settings: Re-complexed peptide
Experimental: as §2

[8] = test system: Male Sprague-Dawley rats; test: Combination penile erection behavior studies: antagonist IV before IN agonist; type: in vivo, rat; settings: effect induced by 50 µg/kg intranasal Ac-Nle-cyclo(-Asp-His-D-Phe-Arg-Trp-Lys)-OH;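 as to Mean Penile Erections/Rat: Erections counted over 30 min observation after IN dosing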;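 as to Percent with Penile Erections: Erections counted over 30 min observation after IN dosing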
[9] = biological target: T5, hMC2-R (Homo sapiens, UniProt P41968); test: Competitive binding assay of additional compounds, Table 6 hMC2-R; settings: 1 μM, mean of triplicate
T5 construct: expressed in transfected cells; host or cells: HEK-293
T5 sequence (P41968 whole entry): as the sequence (P41968 whole entry) above

[10] = test system: Male Sprague-Dawley rats; test: Combination penile erection behavior studies: antagonist IV before IN agonist; type: in vivo, rat;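 as to Mean Penile Erections/Rat: Erections counted over 30 min observation after IN dosing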;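 as to Percent with Penile Erections: Erections counted over 30 min observation after IN dosing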
Experimental: Conditions were as in Example 3 except as noted. Groups of 5-6 rats received an IV dose of either placebo or antagonist 5 minutes prior to an IN dose of either placebo or agonist. Two antagonists were used: ReO[Heptanoyl-Ser(Bzl)-D-Nal 2′-Arg-Trp-Cys-NH2] and SHU9119 (Hruby V J, Lu D, Sharma S D, et al. J Med Chem 38:3454-3461 (1995)), Ac-Nle-cyclo(-Asp-His-D-Nal 2′-Arg-Trp-Lys)-NH2. The agonist used was Ac-Nle-cyclo(-Asp-His-D-Phe-Arg-Trp-Lys)-OH. Immediately after IN treatment, rats were placed into individual Lucite cages for observation. […] In combination studies, the antagonist was dosed IV 5 minutes prior to a 50 μg/kg IN dose of Ac-Nle-cyclo(-Asp-His-D-Phe-Arg-Trp-Lys)-OH.
These studies were conducted as described above in Example 4 with metallopeptide antagonists administered IV five minutes before IN administration of 50 μg/kg Ac-Nle-cyclo(-Asp-His-D-Phe-Arg-Trp-Lys)-OH. […] The potency of these antagonists also correlated with their relative binding affinities in the in vitro binding assays.

[11] = Table 1, 1 μM Re-complexed peptide
[12] = IV 10 μg/kg, 30 min observation
[13] = IV 50 μg/kg, 30 min observation
[14] = Table 1, 10 μM Re-complexed peptide
[15] = IV 150 μg/kg, 30 min observation
[16] = Table 6, 1 μM, mean of triplicate
[17] = combination: antagonist 200 μg/kg IV 5 min prior to 50 μg/kg IN Ac-Nle-cyclo(-Asp-His-D-Phe-Arg-Trp-Lys)-OH

Substance | % Inhibition of Binding hMC3-R ([1]; 1 μM Re-complexed peptide) [%] | % Inhibition of Binding hMC5-R [2, 11] [%] | % Inhibition of Binding hMC4-R [3, 11] [%] | Functional activity at MC4-R (cAMP accumulation; inhibition of α-MSH-induced cAMP) [4] | % Inhibition of Binding MC1-R [5, 11] [%] | Mean Penile Erections/Rat [6, 13] | Induction of penile erections (PEs) in rat model, in words [6] | Mean Penile Erections/Rat [6, 15] | other results
Ac-Nle-Ala-His-D-Phe-Arg-Trp-Cys-NH2 ({Ac-Nle-Ala-H2N}-[dF]RWC-NH2; also: ReO complex) | 70 | 93 | 89 | MC4-R agonists | 91 | 1.0 |  |  | % with Penile Erections ([6]; IN 10 μg/kg, 10 rats): 70%; Mean Penile Erections/Rat ([6]; IN 10 μg/kg, 10 rats): 0.9 ± 0.2; Mean Penile Erections/Rat [6, 12]: 0.25; Mean Penile Erections/Rat ([6]; IV 30 μg/kg, 30 min observation): 0.75
Ac-Nle-Ala-His-D-Phe-Arg-Cys-Trp-NH2 ({Ac-Nle-Ala-H2N}-[dF]RCW-NH2; also: ReO complex) |  |  |  |  |  | 0 | inactive in inducing PEs |  | Functional activity at MC1-R (cAMP accumulation) [7]: MC1-R specific agonist; % Inhibition of Binding hMC3-R ([1]; 10 μM Re-complexed peptide): 14%; % Inhibition of Binding hMC5-R [2, 14]: 22%; % Inhibition of Binding hMC4-R [3, 14]: 29%; % Inhibition of Binding MC1-R [5, 14]: 97%; Mean Penile Erections/Rat [6, 12]: 0
Heptanoyl-Ser(Bzl)-D-Nal 2′-Arg-D-Trp-Cys-NH2 | 6 | 60 | 66 | MC4-R antagonists | 1 |  | inactive in inducing PEs | 0 | Percent PE Inhibition ([8]; antagonist 200 μg/kg IV): 50%; Percent PE Inhibition ([8]; antagonist 500 μg/kg IV): 40%
3′-Br Phenyl acetyl-Arg-Arg-D-Phe(4′-Cl)-Cys-Trp-NH2 |  |  | 100 | MC4-R agonists | 97 | 0.5 |  |  | % Inhibition of Binding hMC2-R [9]: 48%; % Inhibition of Binding hMC5-R [2, 16]: 89%; % Inhibition of Binding hMC4-R [3, 16]: 92%; % Inhibition of Binding MC1-R [5, 16]: 91%
D-(N-Bzl)Nal 2′-Arg-Trp-Cys-NH2 | 51 | 95 | 99 | MC4-R antagonists | 34 |  | inactive in inducing PEs | 0 | Percent PE Inhibition ([8]; antagonist 100 μg/kg IV): 14.28%; Percent PE Inhibition ([8]; antagonist 150 μg/kg IV): 100%
Ac-Nle-Ala-His-D-Phe(3′-Cl)-Arg-Trp-Cys-Trp-NH2 |  |  | 100 | MC4-R agonists | 101 | 0.5 |  |  | 
Heptanoyl-Ser(Bzl)-D-Nal 2′-Arg-Trp-Cys-NH2 | 64 | 98 | 97 | MC4-R antagonists | 19 |  | inactive in inducing PEs | 0 | Inhibitory effect on agonist-induced PE response, in words ([10]; IV 0, 100, 150 and 200 μg/kg, FIG. 8): increased with dose; Mean Penile Erections/Rat ([10]; antagonist alone, 200 μg/kg IV): 0; Percent with Penile Erections ([10]; antagonist alone, 200 μg/kg IV): 0%; Mean Penile Erections/Rat [10, 17]: 0; Percent with Penile Erections [10, 17]: 0%; Effect on erectile behavior induced by Ac-Nle-cyclo(-Asp-His-D-Phe-Arg-Trp-Lys)-OH, in words ([10]; rats, antagonist IV before IN agonist): blocked; Percent PE Inhibition ([8]; antagonist 100 μg/kg IV): 14.28%; Percent PE Inhibition ([8]; antagonist 150 μg/kg IV): 50%; Percent PE Inhibition ([8]; antagonist 200 μg/kg IV): 100%
